Here are results for 11 compounds from PubChem BioAssay (NCI).

Assay in all cases: NCI anticancer screen, dose series, 48 h
Assay [1] has as its system CAKI-1 renal.
Assay [2] has as its system SF-539 CNS.
Assay [3] concerns LOX IMVI melanoma.
Assay [4] relates to SNB-19 CNS.
In assay [5] the test system is HCT-116 colon.
Assay [6] relates to NCI-H226 lung.
Assay [7] concerns UACC-62 melanoma.
The subject of assay [8] is MCF7 breast.
The subject of assay [9] is SK-MEL-5 melanoma.
The test system of assay [10] is EKVX NSCLC.

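Cultured in 96-well plates, cells were exposed to test compound for 48 hours across five concentrations. At the GI50, growth is halved. At the TGI there is no net growth.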 Where only a bound is given, the exact number is not on record here.

As to `CCN1C(=O)N(CC)C2C1NN=c1s/c(=C\c3cc4ccccc4[nH]3)c(=O)n12` (stereo not drawn), the GI50 in assay [1] was less than 0.0169 µM; in assay [2], less than 0.01 µM; in assay [3], less than 0.01 µM; in [4], 0.055 µM; in assay [5], less than 0.01 µM; in assay [6] it was 0.186 µM. The GI50 is less than 0.0111 µM in [7], less than 0.01 µM in assay [8], 0.0202 µM in assay [9] and 0.0453 µM in [10]. Further, the TGI in assay [1] is 11.6 µM; in assay [3], more than 100 µM; in assay [4] it was 15.8 µM; in [5], more than 37.2 µM; in [6], 61.6 µM; in [7], 7.83 µM. In addition, the results for the TGI in assay [8], in assay [9] and in assay [10] were 14.6 µM, 0.063 µM and more than 100 µM, respectively.
Regarding `CCCCCCCOc1c(OC)cc(C2CC(=O)Nc3c2c(C)nn3-c2nc3ccccc3[nH]2)cc1OC` (stereo not drawn), the GI50 in assay [1] was 1.92 µM; in assay [2], 1.66 µM; in [3] it was 2.12 µM; in [4] it was 3.93 µM; in assay [5], 3.49 µM; in assay [6], 2.1 µM. Besides, the GI50 in assay [7] was 2.54 µM; in [8], 2.91 µM; in [9] it was 1.93 µM; in assay [10], 2.54 µM. In addition, the TGI in assay [1] is 4.25 µM; in assay [2], 3.11 µM; in [3], 4.51 µM; in assay [4] it was more than 100 µM; in assay [5], more than 100 µM; in [6], 4.56 µM. For the same compound, the TGI in assay [7] was 7.3 µM; in assay [8], more than 100 µM; in assay [9] it was 3.78 µM; in assay [10] it was 8.15 µM.
As for `Nc1n[nH]c2ccc([C@@H]3Nc4ccc5[nH]ncc5c4[C@H]4C5C=CC(C5)[C@@H]34)cc12` (stereo partly drawn), the GI50 was 0.23 µM in assay [1]; 0.271 µM in assay [2]; 0.443 µM in [3]; 0.59 µM in assay [4]; 0.351 µM in assay [5]; 0.636 µM in [6]. The GI50 is 0.213 µM in assay [7], 0.14 µM in assay [8], 0.338 µM in [9] and 0.505 µM in assay [10]. Also, the TGI was 21.6 µM in assay [1]; 1.1 µM in [2]; 11.8 µM in assay [3]; 61.3 µM in assay [4]; 3.33 µM in [5]; 10.6 µM in [6]. The TGI in [7] was determined as 18.5 µM; in [8], 19 µM; in assay [9], 1.58 µM; in assay [10] it was 43.2 µM.
As to `CC1(C)CC[C@]2(C(=O)N3CCOCC3)CC[C@]3(C)C(=CC[C@@H]4[C@@]5(C)C/C(=C/c6ccncc6)C(=O)C(C)(C)[C@@H]5CC[C@]43C)[C@@H]2C1`, the GI50 was 1.07 µM in assay [1]; 1.73 µM in assay [2]; 1.24 µM in assay [3]; 6.93 µM in [4]; 0.319 µM in assay [5]; 2.09 µM in assay [6]. In addition, the GI50 in assay [7] was 1.36 µM; in assay [8], 0.509 µM; in assay [9] it was 1.48 µM; in assay [10], 2.87 µM. In addition, the TGI in assay [1] is more than 100 µM; in assay [2], 3.7 µM; in assay [3], 2.72 µM; in [4], 27.7 µM; in [5], 2 µM; in [6] it was 9.22 µM. The TGI was 40.9 µM in assay [7], 15.3 µM in assay [8], 3.01 µM in assay [9] and more than 100 µM in assay [10].
Turning to `CSc1ccccc1C#Cc1ccccc1C#CCCCCO`, the GI50 was 7.13 µM in assay [1]; 13.5 µM in assay [2]; 5.87 µM in [3]; 17.8 µM in assay [4]; 14 µM in assay [5]; 19 µM in assay [6]. Besides, the GI50 in [7] was 13 µM; in [8], 19.1 µM; in assay [9] it was 14 µM; in assay [10], 16.9 µM. The TGI in assay [1] was found to be 20.5 µM; in [2], 27.2 µM; in assay [3], 19.2 µM; in assay [4], 33.5 µM; in [5], 31.4 µM; in assay [6], 43.6 µM. The TGI in assay [7] turned out to be 25.7 µM; in [8], 39.2 µM; in assay [9], 27.6 µM; in assay [10] it was 34.4 µM.
With `O=c1cc(N=Nc2ccc(O)cc2)[nH]c(=O)[nH]1`, the TGI in [1], in [2], in assay [3], in [4], in [5] and in [6] was more than 100 µM in each case. In addition, the TGI in [7], in assay [8], in assay [9] and in [10] was more than 100 µM in each case.
`O=C(CN1CCN(c2ccccc2)CC1)N1CCN(c2nnc(-c3ccc(Cl)cc3)c(-c3ccc(Cl)cc3)n2)CC1`: the GI50 in assay [1] was 13.5 µM; in assay [2] it was 5.91 µM; in assay [3] it was 11.5 µM; in [4] it was 37.2 µM; in assay [5], 4.26 µM; in [6], more than 100 µM. The GI50 was 15.9 µM in [7], 3.08 µM in assay [8], 6.03 µM in assay [9] and 21.6 µM in [10]. Further, the TGI in assay [1] was more than 100 µM; in [2] it was more than 100 µM; in assay [3], 41.4 µM; in [4], more than 100 µM; in assay [5], 16.2 µM; in [6] it was more than 100 µM. The TGI in [7] is more than 100 µM; in [8], 19.6 µM; in [9], 29.6 µM; in [10], more than 100 µM.
On to `COc1ccc(/C=C2\CCC(CN(C)C)C2=O)cc1OC` (stereo not drawn), for which the TGI in [1] was 10 µM; in assay [2], 25 µM; in [3], 3.96 µM; in assay [4], 30.6 µM; in [5], 7.01 µM; in [6], 28.2 µM. In addition, the TGI in assay [7] is 12.7 µM; in assay [8], 8.51 µM; in assay [9], 23.9 µM; in assay [10], 34.1 µM.
As to `COc1ccc2c(c1)C(C)Cc1c(Cl)nc(C)nc1N2C` (stereo not drawn), the GI50 in [1] is 2.56 µM; in assay [2], 1.68 µM; in assay [3], 3.12 µM; in assay [4] it was 3.48 µM; in [5] it was 1.84 µM; in assay [6], 5.83 µM. For the same compound, the GI50 in assay [7] was 0.665 µM; in assay [8] it was 0.791 µM; in assay [9], 2.55 µM; in assay [10], 3.01 µM. Besides, the TGI in assay [1] is more than 100 µM; in [2] it was 6.11 µM; in assay [3] it was 23.9 µM; in assay [4], 29.5 µM; in [5], 16.4 µM; in assay [6], 40.3 µM. The TGI in assay [7] is 36.2 µM; in assay [8] it was 32.7 µM; in assay [9], 11.2 µM; in assay [10], 30.7 µM.
For `CN(C)CC1CCCCCC(CN(C)C)C1=O` (stereo not drawn), the GI50 in assay [1] was 1.49 µM; in assay [2] it was 4.16 µM; in assay [3], 7.68 µM; in [4], 41.7 µM; in assay [5] it was 1.07 µM; in assay [6], 9.98 µM. Moreover, the GI50 in assay [7] is 8.12 µM; in [8], 2.85 µM; in assay [9], 12.2 µM; in assay [10], 12.5 µM. In addition, the TGI was 3.12 µM in assay [1]; 15.7 µM in [2]; 25 µM in assay [3]; more than 100 µM in assay [4]; 3.91 µM in [5]; 33.3 µM in assay [6]. In addition, the TGI in assay [7] came to 22.9 µM; in assay [8], 15.3 µM; in [9] it was 25.1 µM; in [10], 37.3 µM.
Take `COc1cc(C2CC(c3ccc(N(C)C)cc3)=NN2C(C)=O)cc(OC)c1OC` (stereo not drawn): the GI50 in [1] was 0.801 µM; in [2] it was 1.35 µM; in assay [3], 2.28 µM; in assay [5], 1.22 µM; in [6], 6.46 µM; in assay [7] it was 1.48 µM. In addition, the GI50 in assay [8] is 0.577 µM; in [9], 0.804 µM; in [10], 5.53 µM. Further, the TGI is more than 100 µM in assay [1]; 5.34 µM in assay [2]; more than 100 µM in assay [3]; more than 100 µM in [4]; more than 45.4 µM in assay [5]; more than 100 µM in [6]. For the same compound, the TGI in assay [7] is more than 100 µM; in assay [8], more than 100 µM; in [9] it was 17.6 µM; in [10], more than 100 µM.
